Test results reported in the supplement of paper PMC12463676, “Small-molecule dissolution of stress granules by redox modulation benefits ALS models” (Nature Chemical Biology, 2025).

Columns and labels:
[1] = compound: NC(=O)CCCCC1CCSS1 [lipoamide]; experiment: thermal stability z-score vs DMSO; higher = more thermally stabilized by treatment; settings: HeLa, lipoamide concentration 100 µM
Description: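 Cellular thermal proteome profiling in HeLa cells. Cells were treated with 100 µM lipoamide for 1 h, with or without 1 mM arsenate for a further 1 h, then heated to ten temperatures (37-66.3 °C), and soluble protein was quantified by TMT mass spectrometry relative to 0.1% DMSO controls. The thermal stability score (sum of log2 fold changes minus the abundance score) was transformed to a z-score; mean of n = 3 experiments.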

[2] = compound: O=[As]([O-])(O)O.[K+] [potassium arsenate]; experiment: as above; settings: HeLa; arsenate concentration 1 mM
Description: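 Cellular thermal proteome profiling in HeLa cells treated with 1 mM arsenate for 1 h (DMSO pretreatment), heated to ten temperatures (37-66.3 °C). Soluble protein was quantified by TMT mass spectrometry relative to DMSO controls; the thermal stability score was transformed to a z-score; mean of n = 3 experiments.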

[3] = arsenate co-treatment: 1 mM arsenate 1 h
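Also: each temperature applied for 3 min, abundance score taken as mean log2 fold change at the two lowest temperatures, z-score obtained by mean subtraction and division by SD.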

Sequence of UniProt P30520 (P30520 whole entry): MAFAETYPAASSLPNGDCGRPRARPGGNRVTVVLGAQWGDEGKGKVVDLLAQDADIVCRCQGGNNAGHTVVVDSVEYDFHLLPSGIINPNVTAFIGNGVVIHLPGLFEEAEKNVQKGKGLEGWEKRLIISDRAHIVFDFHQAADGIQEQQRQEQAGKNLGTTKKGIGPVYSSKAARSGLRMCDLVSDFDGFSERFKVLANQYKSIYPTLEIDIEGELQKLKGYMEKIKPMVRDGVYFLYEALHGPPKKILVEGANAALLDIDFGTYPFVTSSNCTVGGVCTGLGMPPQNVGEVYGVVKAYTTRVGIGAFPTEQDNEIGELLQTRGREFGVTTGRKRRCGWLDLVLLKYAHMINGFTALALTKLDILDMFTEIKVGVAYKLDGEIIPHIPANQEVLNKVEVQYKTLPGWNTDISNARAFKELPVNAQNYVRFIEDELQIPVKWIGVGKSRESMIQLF
Sequence of UniProt Q9H920 (Q9H920 whole entry): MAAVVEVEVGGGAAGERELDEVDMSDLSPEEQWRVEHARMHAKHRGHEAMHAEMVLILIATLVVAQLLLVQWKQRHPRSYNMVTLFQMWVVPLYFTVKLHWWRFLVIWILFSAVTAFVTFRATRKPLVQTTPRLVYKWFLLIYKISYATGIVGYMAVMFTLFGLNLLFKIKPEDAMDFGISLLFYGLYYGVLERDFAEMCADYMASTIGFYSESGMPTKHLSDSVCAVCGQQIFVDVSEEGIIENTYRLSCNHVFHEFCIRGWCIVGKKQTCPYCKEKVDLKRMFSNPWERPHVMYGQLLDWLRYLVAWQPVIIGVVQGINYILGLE
Sequence of UniProt P50750 (P50750 whole entry): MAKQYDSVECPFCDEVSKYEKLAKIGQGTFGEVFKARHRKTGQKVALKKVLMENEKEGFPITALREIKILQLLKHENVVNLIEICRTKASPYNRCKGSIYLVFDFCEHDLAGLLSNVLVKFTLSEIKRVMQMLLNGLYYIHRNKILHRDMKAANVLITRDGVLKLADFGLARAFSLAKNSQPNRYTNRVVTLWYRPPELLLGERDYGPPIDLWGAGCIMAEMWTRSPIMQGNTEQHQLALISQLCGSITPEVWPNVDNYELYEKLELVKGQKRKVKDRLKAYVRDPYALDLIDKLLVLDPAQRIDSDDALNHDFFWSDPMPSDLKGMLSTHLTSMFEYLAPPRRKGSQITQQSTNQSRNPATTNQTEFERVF
Sequence of UniProt Q9BTF0 (Q9BTF0 whole entry): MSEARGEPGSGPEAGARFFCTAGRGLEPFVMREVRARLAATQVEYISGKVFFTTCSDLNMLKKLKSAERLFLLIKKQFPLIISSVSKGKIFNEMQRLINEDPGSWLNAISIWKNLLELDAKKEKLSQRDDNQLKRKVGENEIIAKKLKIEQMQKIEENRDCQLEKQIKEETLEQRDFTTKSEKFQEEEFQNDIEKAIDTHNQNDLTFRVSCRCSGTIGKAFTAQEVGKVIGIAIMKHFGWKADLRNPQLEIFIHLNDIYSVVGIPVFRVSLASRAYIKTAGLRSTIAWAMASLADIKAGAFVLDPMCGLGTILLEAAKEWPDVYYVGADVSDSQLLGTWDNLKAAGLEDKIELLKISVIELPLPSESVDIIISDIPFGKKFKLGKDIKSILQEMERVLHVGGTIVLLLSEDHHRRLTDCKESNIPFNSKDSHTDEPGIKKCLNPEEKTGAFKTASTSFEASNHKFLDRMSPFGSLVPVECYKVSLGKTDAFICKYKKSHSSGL
Sequence of UniProt Q8IY81 (Q8IY81 whole entry): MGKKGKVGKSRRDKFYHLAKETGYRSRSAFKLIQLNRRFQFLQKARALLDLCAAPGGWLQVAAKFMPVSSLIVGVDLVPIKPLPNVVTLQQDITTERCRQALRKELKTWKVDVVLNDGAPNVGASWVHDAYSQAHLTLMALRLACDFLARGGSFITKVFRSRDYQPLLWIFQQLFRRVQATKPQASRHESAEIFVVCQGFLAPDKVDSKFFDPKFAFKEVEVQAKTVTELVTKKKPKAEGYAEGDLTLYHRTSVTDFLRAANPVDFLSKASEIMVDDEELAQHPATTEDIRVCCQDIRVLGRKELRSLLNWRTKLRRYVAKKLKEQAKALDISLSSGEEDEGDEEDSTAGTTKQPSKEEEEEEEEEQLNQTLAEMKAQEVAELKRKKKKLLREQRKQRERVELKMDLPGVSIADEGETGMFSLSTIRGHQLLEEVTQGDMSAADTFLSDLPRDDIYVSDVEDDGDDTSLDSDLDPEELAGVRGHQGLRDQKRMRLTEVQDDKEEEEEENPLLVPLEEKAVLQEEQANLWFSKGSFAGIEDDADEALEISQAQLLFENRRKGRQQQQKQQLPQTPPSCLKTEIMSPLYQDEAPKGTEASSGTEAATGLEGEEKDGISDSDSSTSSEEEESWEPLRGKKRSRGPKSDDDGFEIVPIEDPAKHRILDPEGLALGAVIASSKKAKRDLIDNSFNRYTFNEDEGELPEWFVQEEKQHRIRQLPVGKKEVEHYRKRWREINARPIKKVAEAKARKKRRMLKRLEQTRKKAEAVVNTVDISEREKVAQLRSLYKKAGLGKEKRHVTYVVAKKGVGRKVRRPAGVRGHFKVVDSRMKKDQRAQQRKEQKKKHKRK
Sequence of UniProt Q8IU81 (Q8IU81 whole entry): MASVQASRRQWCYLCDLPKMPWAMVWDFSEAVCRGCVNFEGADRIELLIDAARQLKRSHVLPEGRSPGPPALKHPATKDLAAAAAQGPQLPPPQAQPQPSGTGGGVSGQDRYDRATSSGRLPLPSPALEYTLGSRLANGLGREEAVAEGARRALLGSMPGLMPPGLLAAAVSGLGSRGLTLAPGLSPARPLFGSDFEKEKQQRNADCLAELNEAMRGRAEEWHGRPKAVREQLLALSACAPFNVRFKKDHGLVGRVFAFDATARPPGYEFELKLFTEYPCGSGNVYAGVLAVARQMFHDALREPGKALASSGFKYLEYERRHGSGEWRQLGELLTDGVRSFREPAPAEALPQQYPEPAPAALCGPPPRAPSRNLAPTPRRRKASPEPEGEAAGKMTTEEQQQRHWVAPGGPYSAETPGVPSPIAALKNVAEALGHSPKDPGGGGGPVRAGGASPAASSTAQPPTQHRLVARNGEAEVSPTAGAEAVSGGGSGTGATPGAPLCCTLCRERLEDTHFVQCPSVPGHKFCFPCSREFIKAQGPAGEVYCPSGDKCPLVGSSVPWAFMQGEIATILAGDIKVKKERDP
Sequence of UniProt Q9HBL7 (Q9HBL7 whole entry): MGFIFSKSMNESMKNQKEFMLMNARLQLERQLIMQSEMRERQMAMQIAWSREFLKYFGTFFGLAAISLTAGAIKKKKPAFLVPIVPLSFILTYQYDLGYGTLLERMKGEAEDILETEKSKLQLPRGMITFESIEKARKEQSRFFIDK
Sequence of UniProt Q9UL54 (Q9UL54 whole entry): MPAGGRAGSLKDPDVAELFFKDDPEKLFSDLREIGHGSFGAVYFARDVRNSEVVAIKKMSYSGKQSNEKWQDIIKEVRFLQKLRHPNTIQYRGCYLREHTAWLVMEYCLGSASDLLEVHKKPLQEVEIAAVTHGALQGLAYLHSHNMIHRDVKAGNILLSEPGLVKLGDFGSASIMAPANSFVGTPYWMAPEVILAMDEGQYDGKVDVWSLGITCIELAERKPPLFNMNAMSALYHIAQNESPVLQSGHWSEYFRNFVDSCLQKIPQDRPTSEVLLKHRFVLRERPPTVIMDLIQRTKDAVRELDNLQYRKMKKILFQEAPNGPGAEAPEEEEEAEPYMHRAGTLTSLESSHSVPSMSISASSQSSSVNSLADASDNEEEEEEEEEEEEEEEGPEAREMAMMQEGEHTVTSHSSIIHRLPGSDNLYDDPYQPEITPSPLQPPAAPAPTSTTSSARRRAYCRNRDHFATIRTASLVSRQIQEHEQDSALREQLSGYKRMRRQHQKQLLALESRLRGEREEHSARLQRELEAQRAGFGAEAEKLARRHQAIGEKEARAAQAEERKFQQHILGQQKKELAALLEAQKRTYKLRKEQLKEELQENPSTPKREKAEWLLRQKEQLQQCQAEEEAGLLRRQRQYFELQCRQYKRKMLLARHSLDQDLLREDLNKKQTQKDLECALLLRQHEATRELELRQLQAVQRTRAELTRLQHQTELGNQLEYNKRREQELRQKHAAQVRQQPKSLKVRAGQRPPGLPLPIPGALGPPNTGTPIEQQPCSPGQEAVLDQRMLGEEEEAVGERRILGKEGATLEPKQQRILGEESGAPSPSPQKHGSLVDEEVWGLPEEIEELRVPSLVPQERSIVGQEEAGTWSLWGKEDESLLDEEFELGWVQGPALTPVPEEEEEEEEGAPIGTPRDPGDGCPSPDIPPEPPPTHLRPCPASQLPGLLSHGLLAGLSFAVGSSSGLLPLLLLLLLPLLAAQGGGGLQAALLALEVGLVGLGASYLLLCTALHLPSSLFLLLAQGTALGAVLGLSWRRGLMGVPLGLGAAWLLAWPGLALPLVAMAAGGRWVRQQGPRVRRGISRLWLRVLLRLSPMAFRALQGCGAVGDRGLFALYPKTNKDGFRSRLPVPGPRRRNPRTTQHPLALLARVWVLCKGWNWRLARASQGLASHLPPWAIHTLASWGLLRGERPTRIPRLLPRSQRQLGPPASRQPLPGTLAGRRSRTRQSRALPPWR
Sequence of UniProt O43819 (O43819 whole entry): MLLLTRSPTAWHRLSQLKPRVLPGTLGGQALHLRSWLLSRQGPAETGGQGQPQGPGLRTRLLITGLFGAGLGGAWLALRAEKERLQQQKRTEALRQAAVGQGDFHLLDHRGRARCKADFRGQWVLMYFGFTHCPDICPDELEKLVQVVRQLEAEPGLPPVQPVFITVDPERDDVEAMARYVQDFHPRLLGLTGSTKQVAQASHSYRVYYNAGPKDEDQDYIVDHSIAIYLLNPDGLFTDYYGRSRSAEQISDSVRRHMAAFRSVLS
Sequence of UniProt O95168 (O95168 whole entry): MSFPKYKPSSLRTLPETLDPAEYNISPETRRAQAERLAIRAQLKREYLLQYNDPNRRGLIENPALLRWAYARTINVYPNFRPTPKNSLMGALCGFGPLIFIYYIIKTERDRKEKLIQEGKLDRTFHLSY

Row | Target | thermal stability z-score [1, 3] | thermal stability z-score ([1]; arsenate co-treatment: none) | thermal stability z-score [2]
1 | TAOK2 (UniProt Q9UL54) | -0.161 | -0.0781 | -0.0359
2 | NDUFB4 (UniProt O95168) | 0.137 | 0.173 | 0.489
3 | FTSJ3 (UniProt Q8IY81) | -0.198 | 0.792 | -0.519
4 | SCO2 (UniProt O43819) | -0.169 | 0.0623 | 0.538
5 | GGA2 (UniProt Q9UJY4) | -0.076 | -0.0378 | -0.335
6 | RNF121 (UniProt Q9H920) | -1 | -0.693 | -1.09
7 | MANF (UniProt P55145) | 0.0932 | -0.0959 | 0.0791
8 | THUMPD2 (UniProt Q9BTF0) | -0.2 | -0.425 | 0.0998
9 | MORC2 (UniProt Q9Y6X9) | -0.165 | -0.0529 | -0.726
10 | OPLAH (UniProt O14841) | -0.0343 | 0.0614 | -0.0405
11 | CCAR1 (UniProt Q8IX12) | 0.657 | 0.27 | -0.106
12 | CLP1 (UniProt Q92989) | -0.189 | -0.158 | -0.0689
13 | PRMT6 (UniProt Q96LA8) | 0.257 | 0.412 | 0.483
14 | ADSS (UniProt P30520) | 0.449 | -0.203 | -1.32
15 | IRF2BP1 (UniProt Q8IU81) | -0.196 | -0.13 | -0.228
16 | EEF1A1 (UniProt P68104) | -0.0408 | 0.166 | 0.2
17 | PPP2R1A (UniProt P30153) | 0.108 | 0.121 | -1.48
18 | RB1CC1 (UniProt Q8TDY2) | -0.502 | -0.143 | 0.893
19 | EIF4ENIF1 (UniProt Q9NRA8) | -0.03 | 0.00167 | -0.0325
20 | TRIP4 (UniProt Q15650) | 0.243 | 0.422 | -0.932
21 | TAP1 (UniProt Q03518) | -0.509 | -0.0614 | 1.47
22 | SMARCA5 (UniProt O60264) | 0.76 | 1.44 | -0.922
23 | ACTN1 (UniProt P12814) | 0.249 | 0.339 | 0.163
24 | PAGR1 (UniProt Q9BTK6) | 0.263 | -0.446 | -0.194
25 | UNC45A (UniProt Q9H3U1) | -0.649 | -0.167 | 0.158
26 | CCDC50 (UniProt Q8IVM0) | 0.557 | 0.248 | -0.0338
27 | PLGRKT (UniProt Q9HBL7) | 0.684 | 0.147 | 0.783
28 | CERCAM (UniProt Q5T4B2) | -0.0616 | -0.543 | -0.44
29 | CDK9 (UniProt P50750) | -0.226 | -0.263 | 0.544
30 | NUBP1 (UniProt P53384) | -0.23 | 0.385 | -0.302
